Data from US20210346411A1 (priority 2020, published 2021).
Entries after “also recorded” stand apart in the source; their conditions may differ.

What was measured:
Vero E6 cells = experiment: Cytotoxicity test of drug (CCK-8 kit); assay type: cell-based; conditions: all test concentrations (0.14-100 μM), 48 hours
EBOV = conditions: intravenous 10 mg/kg per day for consecutive 12 days, treatment started three days after virus exposure; cited from earlier work
[1] = tested on: SARS-CoV-2 (2019-nCoV) virus (nCoV-2019BetaCoV/Wuhan/WIV04/2019 strain); experiment: Reduction of viral nucleic acid load of Vero E6 cells infected by SARS-CoV-2 (qRT-PCR of supernatant); assay type: cell-based; design: Virus genome copy number: unit not given here; conditions: for Virus genome copy number: 48 h, Vero E6, 100TCID50, supernatant

CCC(CC)COC(=O)[C@H](C)N[P@](=O)(OC[C@H]1O[C@@](C#N)(c2ccc3c(N)ncnn23)[C@H](O)[C@@H]1O)Oc1ccccc1 [Remdesivir, 2-ethylbutyl (2S)-2-[[[(2R,3S,4R,5R)-5-(4-aminopyrrolo[2,1-f][1,2,4]triazin-7-yl)-5-cyano-3,4-dihydroxyoxolan-2-yl]methoxy-phenoxyphosphoryl]amino]propanoate]
cytotoxicity (toxic effect on the cells) (Vero E6 cells): no cytotoxicity was observed; also recorded: no toxic effect
EBOV-infected animals protected from death (EBOV): 100%
replication of EBOV (EBOV): significantly inhibit
Virus genome copy number ([1]; 0.14 μM): 6120820311.5
Virus genome copy number ([1]; 0.41 μM): 1751863138.5
Virus genome copy number ([1]; 1.23 μM): 879273650.5
Virus genome copy number ([1]; 3.70 μM): 20287512.5
Virus genome copy number ([1]; 11.11 μM): 16308516.5
Virus genome copy number ([1]; 33.33 μM): 12429732
Virus genome copy number ([1]; 100 μM): 9010444.5
inhibition of the replication of the SARS-CoV-2 virus genome in the infected supernatant ([1]; concentrations of 100 μM, 33 μM, 11.1 μM and 3.7 μM): could effectively inhibit
reduction of the viral nucleic acid load ([1]; drug concentration of 33 μM, 48 hours after infection, Vero E6): an order of magnitude
viral nucleic acid load in cells infected by SARS-CoV-2 ([1]; micromolar concentration level): can reduce the viral nucleic acid load
